Source: patent US9133207B2, “Tetrandrine derivatives with substituted 5-carbon, preparation method and use thereof” (Hangzhou Bensheng Pharmaceutical Co., Ltd., priority 2011, dated 2015)
In brackets after ≈: the same amount, converted by molar mass.

Columns and labels:
[1] = system: PC-3 (prostate cancer); assay: Solid tumor cell growth inhibition, MTT, 72 h (Example 7); format: cell-based, human; settings: for IC50 / IC90: Homo sapiens, 72 h, MTT, PC-3
How it was run: (§1)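 MTT read-out of viable cells after 72 h compound treatment, reported as percent viability versus untreated control (100%). Cells seeded at 4000 per well, grown 24 h beforehand in 10% FBS DMEM high glucose, 37 °C, 5% CO2.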

[2] = system: Hep-2 (laryngeal carcinoma); assay: as above; format: cell-based, human; settings: Homo sapiens; 72 h, MTT, Hep 2
How it was run: as §1

[3] = system: CaES-17 (esophageal cancer cell); assay: as above; format: cell-based, human; settings: Homo sapiens, CaEs17; 72 h, MTT, CAES-17
How it was run: as §1

[4] = system: PANC-1 (pancreatic cancer); assay: as above; format: cell-based, human; settings: for IC50 / IC90: Homo sapiens, 72 h, MTT, PANC-1
How it was run: as §1

[5] = system: MG63 (osteosarcoma); assay: as above; format: cell-based, human; settings: Homo sapiens; 72 h, MTT, MG-63
How it was run: as §1

[6] = system: RKO (human colon adenocarcinoma cell); assay: as above; format: cell-based; settings: Homo sapiens; 72 h, MTT, RKO
How it was run: as §1

[7] = system: Huh7 (human liver cancer cell); assay: as above; format: cell-based; settings: Homo sapiens; 72 h, MTT, Huh-7
How it was run: as §1

[8] = system: Hela (human cervical cancer cell); assay: as above; format: cell-based; settings: Homo sapiens; 72 h, MTT, Hela
How it was run: as §1

[9] = system: CNE (nasopharyngeal carcinoma cell); assay: as above; format: cell-based; settings: Homo sapiens
How it was run: as §1

[10] = system: SK-OV-3 (ovarian cancer cell); assay: as above; format: cell-based; settings: Homo sapiens
How it was run: as §1

[11] = system: MGC 803 (human gastric cancer cell); assay: as above; format: cell-based; settings: Homo sapiens
How it was run: as §1

[12] = system: U87 MG (malignant glioma cell); assay: as above; format: cell-based; settings: Homo sapiens, U-87 MG
How it was run: as §1

[13] = system: Becap37 (human breast cancer cell); assay: as above; format: cell-based; settings: Homo sapiens; 72 h, MTT, Becap-37
How it was run: as §1

[14] = system: A549 (human lung cancer); assay: as above; format: cell-based; settings: Homo sapiens; 72 h, MTT, A549
How it was run: as §1

[15] = system: K562/adr (drug-resistant, chronic myeloid leukemia, CML); assay: Leukemia cell growth inhibition, MTT, 72 h (Example 5); format: cell-based, human; settings: Homo sapiens, K562/Adr; 72 h, MTT
How it was run: (§2)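 Seed 6000 leukemia cells per well in 1640 medium containing 10% FBS. Add test compounds at different concentrations, mix, incubate 72 hours at 37° C in 5% CO2. Determine viable cells by MTT.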

[16] = system: H9 (acute lymphoblastic leukemia, ALL); assay: as above; format: cell-based, human; settings: Homo sapiens; 72 h, MTT
How it was run: as §2

[17] = system: Jurkat (acute lymphoblastic leukemia, ALL); assay: as above; format: cell-based, human; settings: Homo sapiens, Jurkat; 72 h, MTT
How it was run: as §2

[18] = system: Kasumi-1 (acute myeloid leukemia M2 type, AML-M2); assay: as above; format: cell-based, human; settings: Homo sapiens, Kasumi 1
How it was run: as §2

[19] = system: NB4 (acute promyelocytic leukemia, AML); assay: as above; format: cell-based, human; settings: Homo sapiens; 72 h, MTT
How it was run: as §2

[20] = system: RPMI8226 (multiple myeloma); assay: Multiple myeloma cell growth inhibition, MTT, 72 h (Example 6); format: cell-based, human; settings: Homo sapiens, RPMI-8226; 72 h, MTT, RPMI8226
How it was run: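 Viability was read by MTT after 72 h of compound exposure at 37 °C, 5% CO2. Each well held 6000 RPMI8226 cells in 1640 medium containing 10% fetal bovine serum, with derivatives added at various concentrations.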

For COc1ccc2cc1Oc1ccc(cc1)C[C@H]1c3cc(c(OC)cc3CCN1C)Oc1c(OC)c(OC)c(CNC3CC3)c3c1[C@H](C2)N(C)CC3 [BS-TE-301], the IC50 [1] was 3.02 µg/mL (≈ 4.36 µM), the IC90 [1] was 4.68 µg/mL (≈ 6.76 µM) and the IC50 [2] was 3.5 µg/mL (≈ 5.06 µM). For the same compound, the IC90 [2] was 12.5 µg/mL (≈ 18 µM), the IC50 [3] was 2.93 µg/mL (≈ 4.23 µM) and the IC90 [3] was 22.3 µg/mL (≈ 32.2 µM). It also gave an IC50 [4] of 2.79 µg/mL (≈ 4.03 µM), an IC90 [4] of 7.35 µg/mL (≈ 10.6 µM) and an IC50 [5] of 2 µg/mL (≈ 2.89 µM). The IC90 [5] was 3.8 µg/mL (≈ 5.49 µM), the IC50 [6] was 1.22 µg/mL (≈ 1.76 µM) and the IC90 [6] was 2.94 µg/mL (≈ 4.25 µM). The IC50 [7] was 1.27 µg/mL (≈ 1.84 µM), the IC90 [7] was 2.4 µg/mL (≈ 3.47 µM) and the IC50 [8] was 1.97 µg/mL (≈ 2.85 µM). It also gave an IC90 [8] of 3.83 µg/mL (≈ 5.54 µM), an IC50 [9] of 3.7 µg/mL (≈ 5.35 µM) and an IC90 [9] of 6.2 µg/mL (≈ 8.96 µM). For the same compound, the IC50 [10] was 3.77 µg/mL (≈ 5.45 µM), the IC90 [10] was 24.3 µg/mL (≈ 35.1 µM) and the IC50 [11] was 1.74 µg/mL (≈ 2.51 µM). For the same compound, the IC90 [11] was 7.1 µg/mL (≈ 10.3 µM), the IC50 [12] was 0.69 µg/mL (≈ 0.997 µM) and the IC90 [12] was 3.05 µg/mL (≈ 4.41 µM). It also gave an IC50 [13] of 2.3 µg/mL (≈ 3.32 µM), an IC90 [13] of 5.6 µg/mL (≈ 8.09 µM) and an IC50 [14] of 5.1 µg/mL (≈ 7.37 µM). The IC90 [14] was greater than 16 µg/mL, the IC50 [15] was 0.49 µg/mL (≈ 0.708 µM) and the IC90 [15] was 2.81 µg/mL (≈ 4.06 µM). It also gave an IC50 [16] of 1.02 µg/mL (≈ 1.47 µM), an IC90 [16] of 2.12 µg/mL (≈ 3.06 µM) and an IC50 [17] of 1.09 µg/mL (≈ 1.58 µM). The IC90 [17] was 6.61 µg/mL (≈ 9.55 µM), the IC50 [18] was 1.67 µg/mL (≈ 2.41 µM) and the IC90 [18] was 5.53 µg/mL (≈ 7.99 µM). For the same compound, the IC50 [19] was 0.8 µg/mL (≈ 1.16 µM), the IC90 [19] was 2 µg/mL (≈ 2.89 µM) and the IC50 [20] was 0.06 µg/mL (≈ 0.0867 µM). The IC90 [20] was 2.95 µg/mL (≈ 4.26 µM).

COc1ccc2cc1Oc1ccc(cc1)C[C@H]1c3cc(c(OC)cc3CCN1C)Oc1c(OC)c(OC)c(CN(C)[C@@H](C)c3ccccc3)c3c1[C@H](C2)N(C)CC3 [BS-TE-317] was tested, and the IC50 [1] was 1.59 µg/mL (≈ 2.06 µM), the IC90 [1] was 2.14 µg/mL (≈ 2.78 µM) and the “anti-PC-3 activity increase over tetrandrine” value ([1]; compared with tetrandrine) was roughly 4 fold. The IC50 [2] was 1.96 µg/mL (≈ 2.55 µM), the IC90 [2] was 4.25 µg/mL (≈ 5.52 µM) and the IC50 [3] was 1.61 µg/mL (≈ 2.09 µM). It also gave an IC90 [3] of 7.4 µg/mL (≈ 9.61 µM), an IC50 [4] of 1.4 µg/mL (≈ 1.82 µM) and an IC90 [4] of 4.18 µg/mL (≈ 5.43 µM). The “anti-PANC-1 activity increase over tetrandrine” value ([4]; compared with tetrandrine) was 2 fold, the IC50 [5] was 1.3 µg/mL (≈ 1.69 µM) and the IC90 [5] was 1.9 µg/mL (≈ 2.47 µM). The IC50 [6] was 1.15 µg/mL (≈ 1.49 µM), the IC90 [6] was 2.49 µg/mL (≈ 3.23 µM) and the IC50 [7] was 1.55 µg/mL (≈ 2.01 µM). The IC90 [7] was 3.72 µg/mL (≈ 4.83 µM), the IC50 [8] was 0.94 µg/mL (≈ 1.22 µM) and the IC90 [8] was 2.02 µg/mL (≈ 2.62 µM). It also gave an IC50 [9] of 2.3 µg/mL (≈ 2.99 µM), an IC90 [9] of 3.5 µg/mL (≈ 4.55 µM) and an IC50 [10] of 2 µg/mL (≈ 2.6 µM). For the same compound, the IC90 [10] was 8.1 µg/mL (≈ 10.5 µM), the IC50 [11] was 0.73 µg/mL (≈ 0.948 µM) and the IC90 [11] was 1 µg/mL (≈ 1.3 µM). It also gave an IC50 [12] of 0.5 µg/mL (≈ 0.649 µM), an IC90 [12] of 1.81 µg/mL (≈ 2.35 µM) and an IC50 [13] of 1.3 µg/mL (≈ 1.69 µM). It also gave an IC90 [13] of 3.2 µg/mL (≈ 4.16 µM), an IC50 [14] of 2.2 µg/mL (≈ 2.86 µM) and an IC90 [14] of 5.8 µg/mL (≈ 7.53 µM). It also gave an IC50 [15] of 0.36 µg/mL (≈ 0.468 µM), an IC90 [15] of 1.58 µg/mL (≈ 2.05 µM) and an IC50 [16] of 0.7 µg/mL (≈ 0.909 µM). The IC90 [16] was 1.11 µg/mL (≈ 1.44 µM), the IC50 [17] was 1.13 µg/mL (≈ 1.47 µM) and the IC90 [17] was 4.75 µg/mL (≈ 6.17 µM). For the same compound, the IC50 [18] was 0.88 µg/mL (≈ 1.14 µM), the IC90 [18] was 3.57 µg/mL (≈ 4.64 µM) and the IC50 [19] was 0.9 µg/mL (≈ 1.17 µM). For the same compound, the IC90 [19] was 2.1 µg/mL (≈ 2.73 µM), the IC50 [20] was 0.06 µg/mL (≈ 0.0779 µM) and the IC90 [20] was 1.49 µg/mL (≈ 1.94 µM).
